Target: T1, CD209 antigen (Homo sapiens, UniProt Q9NNX6)
T1 sequence (Q9NNX6 whole entry): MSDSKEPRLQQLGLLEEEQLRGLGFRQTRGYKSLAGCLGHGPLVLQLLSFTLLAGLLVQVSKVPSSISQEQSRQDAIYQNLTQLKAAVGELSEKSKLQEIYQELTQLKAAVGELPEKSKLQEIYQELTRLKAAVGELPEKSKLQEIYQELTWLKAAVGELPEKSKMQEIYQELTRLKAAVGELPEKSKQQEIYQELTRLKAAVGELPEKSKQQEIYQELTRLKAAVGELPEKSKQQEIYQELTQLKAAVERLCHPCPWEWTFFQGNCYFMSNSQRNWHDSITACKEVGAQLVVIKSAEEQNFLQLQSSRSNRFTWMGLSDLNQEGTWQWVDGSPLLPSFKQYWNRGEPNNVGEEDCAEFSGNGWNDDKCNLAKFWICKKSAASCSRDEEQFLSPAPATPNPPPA
Assay: Inhibition of binding of immobilized mannosylated BSA to DC-SIGN extracellular domain (66 to 404 residues) (unknown origin) expressed in Escherichia coli by SPR assay

| IC50 [µM] | SMILES |
| --- | --- |
| 720 | COC(=O)[C@H]1C[C@H](OC)[C@@H](O[C@H]2O[C@H](CO)[C@@H](O)[C@H](O)[C@@H]2O)C[C@@H]1C(=O)OC |
| 776 | COC(=O)[C@H]1C[C@H](OC(=O)C(C)(C)C)[C@@H](S[C@H]2O[C@H](CO)[C@@H](O)[C@H](O)[C@@H]2O)C[C@@H]1C(=O)OC |
| 776 | COC(=O)[C@H]1C[C@H](OC)[C@@H](S[C@H]2O[C@H](CO)[C@@H](O)[C@H](O)[C@@H]2O)C[C@@H]1C(=O)OC |
